Drawing on patent US8188308B2 (Kyowa Hakko Bio Co., Ltd., priority 2006, dated 2012), this text covers Dissolution time, Average particle diameter and Average width for five molecules.

For data set [1] the following is noted: 12 g crystals in 200 ml ionized water, 37° C., 120 rpm, time to complete dissolution. How it is done:
12 g of each of the crystals was put in to 200 ml of the ionized water maintained at a temperature of 37° C., and the time from injection to complete dissolution of the crystals when agitated at 120 rpm was measured.

The conditions of data set [2]: glutathione crystals; volume median diameter. How it is done:
(2) Average Particle Diameter
This is synonymous with volume median diameter, and it was measured using a laser diffraction and scattering particle diameter analyzer, the LMS-24 SK Laser Micron Sizer (Seishin Enterprise Co. Ltd.) and expressed as a cumulative 50% volume particle diameter.

The conditions of data set [3]: glutathione crystals. As for the experimental part:
The crystals were observed and photographed using a VH-8000 digital microscope (Keyence Corporation). The width of approximately 300 crystals was measured and calculations performed.

Several values for one entry are separate records, joined by “and”; a condition that tells them apart may be missing. Equal entries are not always repeated.

`N[C@@H](CCC(=O)N[C@@H](CS)C(=O)NCC(=O)O)C(=O)O` [Commercial product A] gave a Dissolution time in data set [1] of 124 s. The same molecule showed an Average particle diameter in data set [2] of 9 μm. The Average width in data set [3] was found to be 3 μm.
As for `N[C@@H](CCC(=O)N[C@@H](CS)C(=O)NCC(=O)O)C(=O)O` [Example 1, gamma-L-glutamyl-L-cysteinyl glycine], the Average particle diameter in data set [2] turned out to be 52 μm. Also, the Average width in data set [3] was determined as 25 μm.
Consider `N[C@@H](CCC(=O)N[C@@H](CS)C(=O)NCC(=O)O)C(=O)O` [Example 2, gamma-L-glutamyl-L-cysteinyl glycine], for which the Average width in data set [3] is 14 μm and 7 μm.
The molecule `N[C@@H](CCC(=O)N[C@@H](CS)C(=O)NCC(=O)O)C(=O)O` [commercial product B] yielded an Average width in data set [3] of 3 μm.
As for `N[C@@H](CCC(=O)N[C@@H](CS)C(=O)NCC(=O)O)C(=O)O` [commercial product C], in data set [3], the Average width amounted to 3 μm.
